# Test results as given in patent US20260374754A1, “N-((ISOQUINOLIN-6-YL)METHYL)-1H-PYRAZOLE-4-CARBOXAMIDE DERIVATIVES AS PLASMA KALLIKREIN INHIBITORS FOR THE TREATMENT OF HEREDITARY ANGIODEMA” (Takeda Pharmaceutical Company Limited, priority 2022, published 2026).
# Target: human activated kallikrein enzyme (Homo sapiens, UniProt P03952)
# Assay: Inhibition of human activated plasma kallikrein, fluorogenic PFR-AMC substrate, 500 pM enzyme format
# Type: biochemical
# Details: 500 pM activated kallikrein; 300 μM PFR-AMC; 30 min preincubation; 10 min room temperature; pH 7.5; read-out: Primary Dose Response Assay: Average EC50
# How it was run: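 500 pM activated kallikrein preincubated 30 min at room temperature with inhibitors in pH 7.5 Tris/EDTA/NaCl buffer with PEG-400 and Triton X-100. Reaction started with 300 μM PFR-AMC, run 10 min at room temperature; AMC fluorescence read at ex 380/em 460 nm.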
# human activated kallikrein enzyme, sequence (P03952 391-638 limits assumed): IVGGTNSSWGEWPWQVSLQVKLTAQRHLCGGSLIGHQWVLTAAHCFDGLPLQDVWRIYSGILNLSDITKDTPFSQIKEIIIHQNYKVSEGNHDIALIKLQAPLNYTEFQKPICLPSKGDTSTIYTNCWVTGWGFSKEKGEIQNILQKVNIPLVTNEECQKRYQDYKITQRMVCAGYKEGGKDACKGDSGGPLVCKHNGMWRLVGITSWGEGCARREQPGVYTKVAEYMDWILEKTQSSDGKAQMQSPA
# human activated kallikrein enzyme, sequence (P03952 20-390 partner limits assumed): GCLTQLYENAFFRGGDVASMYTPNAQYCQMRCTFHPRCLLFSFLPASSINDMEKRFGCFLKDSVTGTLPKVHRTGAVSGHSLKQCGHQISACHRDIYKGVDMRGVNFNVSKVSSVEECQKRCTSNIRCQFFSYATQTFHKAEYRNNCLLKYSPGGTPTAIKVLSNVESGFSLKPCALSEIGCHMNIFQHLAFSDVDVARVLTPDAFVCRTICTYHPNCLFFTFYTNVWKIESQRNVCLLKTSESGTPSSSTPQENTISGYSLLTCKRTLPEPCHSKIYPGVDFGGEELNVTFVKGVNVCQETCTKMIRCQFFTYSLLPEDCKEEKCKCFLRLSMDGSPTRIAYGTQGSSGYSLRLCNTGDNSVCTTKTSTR
row,EC50 [nM],Structure (SMILES)
1,< 1,"Cc1cc2c(N)nccc2c(C)c1CNC(=O)c1cnn(Cc2cn3cc(C(F)(F)F)ccc3n2)c1 [Example 201, N-((1-amino-5,7-dimethylisoquinolin-6-yl)methyl)-1-((6-(trifluoromethyl)imidazo[1,2-a]pyridin-2-yl)methyl)-1H-pyrazole-4-carboxamide]"
2,> 1000,"Cc1cc2c(N)nccc2c(C)c1CNC(=O)c1cc(CN)nn1Cc1ccccc1 [Example 202, N-((1-amino-5,7-dimethylisoquinolin-6-yl)methyl)-3-(aminomethyl)-1-benzyl-1H-pyrazole-5-carboxamide]"
3,> 1000,"Cc1cc2c(N)nccc2c(C)c1CNC(=O)c1cc(CN)n(Cc2ccccc2)n1 [Example 203, N-((1-amino-5,7-dimethylisoquinolin-6-y1)methyl)-5-(aminomethyl)-1-benzyl-1H-pyrazole-3-carboxamide]"
4,1 to 10,"Cc1cc2c(N)nccc2c(C)c1CNC(=O)c1cnn(Cc2ccc(CC(=O)N(C)CC3CC3)cc2)c1 [Example 204, N-((1-amino-5,7-dimethylisoquinolin-6-yl)methyl)-1-(4-(2-((cyclopropylmethyl)(methyl)amino)-2-oxoethyl)benzyl)-1H-pyrazole-4-carboxamide]"
5,< 1,"Cc1cc2c(N)nccc2c(C)c1CNC(=O)c1cnn(Cc2ccc(CC(=O)N3C[C@@H]4[C@H](C)[C@@H]4C3)cc2)c1 [Example 205, N-((1-amino-5,7-dimethylisoquinolin-6-yl)methyl)-1-(4-(2-((1R,5S,6r)-6-methyl-3-azabicyclo[3.1.0]hexan-3-y1)-2-oxoethyl)benzyl)-1H-pyrazole-4-carboxamide]"
6,1 to 10,"Cc1cc2c(N)nccc2c(C)c1CNC(=O)c1cnn(Cc2ccc(CC(=O)N3C[C@@H]4[C@H](CF)[C@@H]4C3)cc2)c1 [Example 206, N-((1-amino-5,7-dimethylisoquinolin-6-yl)methyl)-1-(4-(2-((1R,5S,6s)-6-(fluoromethyl)-3-azabicyclo[3.1.0]hexan-3-y1)-2-oxoethyl)benzyl)-1H-pyrazole-4-carboxamide]"
7,1 to 10,"Cc1cc2c(N)nccc2c(C)c1CNC(=O)c1cnn(Cc2ccc(CC(=O)N3C[C@@H]4[C@@H](CF)[C@@H]4C3)cc2)c1 [Example 207, N-((1-amino-5,7-dimethylisoquinolin-6-yl)methyl)-1-(4-(2-((1R,5S,6r)-6-(fluoromethyl)-3-azabicyclo[3.1.0]hexan-3-y1)-2-oxoethyl)benzyl)-1H-pyrazole-4-carboxamide]"
8,10 to 100,"Cc1cc2c(N)nccc2c(C)c1CNC(=O)c1cnn(Cc2ccc(CC(=O)N3C[C@@H]4[C@@H](CO)[C@@H]4C3)cc2)c1 [Example 208, N-((1-amino-5,7-dimethylisoquinolin-6-yl)methyl)-1-(4-(2-((1R,5S,6r)-6-(hydroxymethyl)-3-azabicyclo[3.1.0]hexan-3-y1)-2-oxoethyl)benzyl)-1H-pyrazole-4-carboxamide]"
9,< 1,"Cc1cc2c(N)nccc2c(C)c1CNC(=O)c1cnn(Cc2ccc(CC(=O)N3C[C@@H]4[C@H](CO)[C@@H]4C3)cc2)c1 [Example 209, N-((1-amino-5,7-dimethylisoquinolin-6-y1)methyl)-1-(4-(2-((1R,5S,6s)-6-(hydroxymethyl)-3-azabicyclo[3.1.0]hexan-3-y1)-2-oxoethyl)benzyl)-1H-pyrazole-4-carboxamide]"
10,1 to 10,"Cc1cc2c(N)nccc2c(C)c1CNC(=O)c1cnn(Cc2ccc(CC(=O)N3C[C@@H]4[C@H](C3)[C@@H]4C(=O)O)cc2)c1 [Example 210, (1R,5S,6s)-3-(2-(4-((4-(((1-amino-5,7-dimethylisoquinolin-6-yl)methyl)carbamoyl)-1H-pyrazol-1-yl)methyl)phenyl)acetyl)-3-azabicyclo[3.1.0]hexane-6-carboxylic acid]"
11,< 1,"CCOC(=O)[C@@H]1[C@@H]2CN(C(=O)Cc3ccc(Cn4cc(C(=O)NCc5c(C)cc6c(N)nccc6c5C)cn4)cc3)C[C@@H]21 [Example 211, ethyl (1R,5S,6s)-3-(2-(4-((4-(((1-amino-5,7-dimethylisoquinolin-6-y1)methyl)carbamoyl)-1H-pyrazol-1-yl)methyl)phenyl)acetyl)-3-azabicyclo[3.1.0]hexane-6-carboxylate]"
12,10 to 100,"CCOC(=O)[C@H]1[C@@H]2CN(C(=O)Cc3ccc(Cn4cc(C(=O)NCc5c(C)cc6c(N)nccc6c5C)cn4)cc3)C[C@@H]21 [Example 212, ethyl (1R,SS,6r)-3-(2-(4-((4-(((1-amino-5,7-dimethylisoquinolin-6-y1)methyl)carbamoyl)-1H-pyrazol-1-yl)methyl)phenyl)acetyl)-3-azabicyclo[3.1.0]hexane-6-carboxylate]"
13,10 to 100,"Cc1cc2c(N)nccc2c(C)c1CNC(=O)c1cnn(Cc2ccc(CC(=O)N3C[C@@H]4[C@H](C3)[C@H]4C(=O)O)cc2)c1 [Example 213, (1R,5S,6r)-3-(2-(4-((4-(((1-amino-5,7-dimethylisoquinolin-6-yl)methyl)carbamoyl)-1H-pyrazol-1-yl)methyl)phenyl)acetyl)-3-azabicyclo[3.1.0]hexane-6-carboxylic acid]"
14,< 1,"Cc1cc2c(N)nccc2c(C)c1CNC(=O)c1cnn(Cc2ccc(CC(=O)N3CC4C(C3)C4(F)F)cc2)c1 (stereo not shown) [Example 214, N-((1-amino-5,7-dimethylisoquinolin-6-yl)methyl)-1-(4-(2-(6,6-difluoro-3-azabicyclo[3.1.0]hexan-3-yl)-2-oxoethyl)benzyl)-1H-pyrazole-4-carboxamide]"
15,1 to 10,"Cc1cc2c(N)nccc2c(C)c1CNC(=O)c1cnn(Cc2ccc(CC(=O)N3CC4CC(C4)C3)cc2)c1 [Example 215, 1-(4-(2-(3-azabicyclo[3.1.1]heptan-3-yl)-2-oxoethyl)benzyl)-N-((1-amino-5,7-dimethylisoquinolin-6-yl)methyl)-1H-pyrazole-4-carboxamide]"
16,10 to 100,"Cc1cc2c(N)nccc2c(C)c1CNC(=O)c1cnn(Cc2ccc(CC(=O)N3CC4CC4(C(=O)O)C3)cc2)c1 (stereo not shown) [Example 216, 3-(2-(4-((4-(((1-amino-5,7-dimethylisoquinolin-6-yl)methyl)carbamoyl)-1H-pyrazol-1-yl)methyl)phenyl)acetyl)-3-azabicyclo[3.1.0]hexane-1-carboxylic acid]"
17,1 to 10,"COC(=O)C12CC1CN(C(=O)Cc1ccc(Cn3cc(C(=O)NCc4c(C)cc5c(N)nccc5c4C)cn3)cc1)C2 (stereo not shown) [Example 217, methyl 3-(2-(4-((4-(((1-amino-5,7-dimethylisoquinolin-6-yl)methyl)carbamoyl)-1H-pyrazol-1-yl)methyl)pheny1)acetyl)-3-azabicyclo[3.1.0]hexane-1-carboxylate]"
18,1 to 10,"Cc1cc2c(N)nccc2c(C)c1CNC(=O)c1cnn(Cc2ccc(CC(=O)N3C(C)CCC3C)cc2)c1 (stereo not shown) [Example 218, N-((1-amino-5,7-dimethylisoquinolin-6-y1)methyl)-1-(4-(2-(2,5-dimethylpyrrolidin-1-yl)-2-oxoethyl)benzyl)-1H-pyrazole-4-carboxamide]"
19,< 1,"Cc1cc2c(N)nccc2c(C)c1CNC(=O)c1cnn(Cc2ccc(CC(=O)N3CCC3)cc2)c1 [Example 219, N-((1-amino-5,7-dimethylisoquinolin-6-yl)methyl)-1-(4-(2-(azetidin-1-yl)-2-oxoethyl)benzyl)-1H-pyrazole-4-carboxamide]"
